Reference: ChEMBL document CHEMBL1201862, “PubChem BioAssay data set” (2004)
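These data come from cells grown in 96-well plates and exposed to compound for 48 hours at five concentrations. Abbreviation: GI50, concentration required for 50% inhibition of growth.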 Activity calls are given as the source filed them. Cut-off read from the data, not from the text of the source: active = GI50 up to about 1.1 µM and inactive = higher.

Key:
Experiment in all cases: growth of human tumour cells (NCI), 48 h
786-0 = system: 786-0
A549 = system: A549
CAKI-1 = system: CAKI-1
COLO 205 = system: COLO 205
DMS-273 = system: DMS-273
EKVX = system: EKVX
HT-29 = system: HT-29
LOX IMVI = system: LOX IMVI
M14 = system: M14
MOLT-4 = system: MOLT-4
NCI-H226 = system: NCI-H226
NCI-H460 = system: NCI-H460
NCI-H522 = system: NCI-H522
SF-268 = system: SF-268
SR = system: SR
UACC-257 = system: UACC-257
BT-549 = system: BT-549
DU-145 = system: DU-145
MDA-N = system: MDA-N
NCI/ADR-RES = system: NCI/ADR-RES

Row | SMILES | GI50 (786-0) | GI50 (A549) | GI50 (CAKI-1) | GI50 (COLO 205) | GI50 (DMS-273) | GI50 (EKVX) | GI50 (HT-29) | GI50 (LOX IMVI) | GI50 (M14) | GI50 (MOLT-4) | GI50 (NCI-H226) | GI50 (NCI-H460) | GI50 (NCI-H522) | GI50 (SF-268) | GI50 (SR) | GI50 (UACC-257) | GI50 (BT-549) | GI50 (DU-145) | GI50 (MDA-N) | GI50 (NCI/ADR-RES)
1 | CCCCN(C)CC(C(C)=O)C(c1ccccc1)c1c(O)c2ccccc2oc1=O (stereo not drawn) | > 100 µM (inactive) | > 100 µM (inactive) | > 100 µM (inactive) | > 100 µM (inactive) | > 100 µM (inactive) | > 100 µM (inactive) | > 100 µM (inactive) | > 100 µM (inactive) | > 100 µM (inactive) | > 100 µM (inactive) | > 100 µM (inactive) | > 100 µM (inactive) | > 100 µM (inactive) | > 100 µM (inactive) | > 100 µM (inactive) | > 100 µM (inactive) |  |  |  | 
2 | NCCCN(CCCN)CCCNCc1c2ccccc2c(CNCCCN(CCCN)CCCN)c2ccccc12 | 11.4 µM (inactive) | 24.3 µM (inactive) | 16.2 µM (inactive) | 8.09 µM (inactive) | 6.08 µM (inactive) | 12.8 µM (inactive) | 11 µM (inactive) | 19.1 µM (inactive) | 13.6 µM (inactive) | 26.1 µM (inactive) | 72.1 µM (inactive) | 12 µM (inactive) | 11.6 µM (inactive) | 18.3 µM (inactive) | 35.2 µM (inactive) | 13.7 µM (inactive) |  |  |  | 
3 | COc1cc(/C=C\c2ccc(SC)cc2)cc(OC)c1OC | 0.0221 µM (active) | 0.0215 µM (active) | 0.244 µM (active) | 0.0271 µM (active) | 0.0258 µM (active) | 6.97 µM (inactive) | < 0.0137 µM (active) | < 0.0262 µM (active) | 0.0182 µM (active) | 0.0281 µM (active) | 0.979 µM (active) | 0.0171 µM (active) | 0.0133 µM (active) | 0.0406 µM (active) | < 0.01 µM (active) |  | < 0.01 µM (active) | 0.043 µM (active) | < 0.01 µM (active) | 0.0395 µM (active)
4 | CC(C)C(Sc1nc(-c2ccccc2)c(-c2ccccc2)[nH]1)C(=O)N/N=C/c1ccc([N+](=O)[O-])cc1 (stereo not drawn) | 14.3 µM (inactive) | 27.3 µM (inactive) | 21.1 µM (inactive) | 11.3 µM (inactive) | 12 µM (inactive) | 20.4 µM (inactive) | 6.44 µM (inactive) | 11.6 µM (inactive) | 7.33 µM (inactive) | 1.93 µM (inactive) | 17.9 µM (inactive) | 9.46 µM (inactive) | 15.3 µM (inactive) | 18.5 µM (inactive) | 1.12 µM (inactive) | 12.1 µM (inactive) |  |  |  | 
5 | O=C1C2C3C=CC(C2C(=O)N1CN1CCOCC1)C1C2C(=O)N(CN4CCOCC4)C(=O)C2C31 (stereo not drawn) | > 42.8 µM (inactive) | > 56 µM (inactive) | > 68.2 µM (inactive) | > 43 µM (inactive) | 18.2 µM (inactive) | 97.1 µM (inactive) | > 60 µM (inactive) | > 43.5 µM (inactive) | > 42.9 µM (inactive) | 18.2 µM (inactive) | > 47.3 µM (inactive) | > 37.5 µM (inactive) | > 40 µM (inactive) | > 44.5 µM (inactive) | 30.8 µM (inactive) | > 49.3 µM (inactive) | > 100 µM (inactive) | > 100 µM (inactive) | > 100 µM (inactive) | > 100 µM (inactive)
6 | COc1cc(CC(C(=O)O)C(=O)O)c(OC)cc1CC(C(=O)O)C(=O)O | > 100 µM (inactive) | > 100 µM (inactive) | > 100 µM (inactive) | > 100 µM (inactive) | > 100 µM (inactive) | > 100 µM (inactive) | > 100 µM (inactive) | > 100 µM (inactive) | > 100 µM (inactive) | > 100 µM (inactive) | > 100 µM (inactive) | > 100 µM (inactive) | > 100 µM (inactive) | > 100 µM (inactive) | > 100 µM (inactive) | > 100 µM (inactive) |  |  |  | 
7 | COc1ccc(N/N=C(\CCN(C)C)c2ccccc2)cc1 | 3.4 µM (inactive) | 1.67 µM (inactive) |  | 2.78 µM (inactive) | 3 µM (inactive) | 2.2 µM (inactive) | 6.85 µM (inactive) | 2.07 µM (inactive) | 10.9 µM (inactive) | 3.39 µM (inactive) |  | 3.12 µM (inactive) | 10.7 µM (inactive) | 1.62 µM (inactive) | 3.17 µM (inactive) | 3.78 µM (inactive) |  |  |  | 
8 | CC(C)C1=Cc2ccc3c(c2C(=O)C1=O)CCCC3 | 2.43 µM (inactive) | 5.96 µM (inactive) | 0.955 µM (active) | 11.4 µM (inactive) | 2.21 µM (inactive) | 9.14 µM (inactive) | 9.06 µM (inactive) | 10.4 µM (inactive) | 5.11 µM (inactive) | 0.78 µM (active) | 15 µM (inactive) | 10.6 µM (inactive) | 2.27 µM (inactive) | 7.11 µM (inactive) | 0.515 µM (active) | 3.47 µM (inactive) |  | 17.9 µM (inactive) | 6.61 µM (inactive) | 21.4 µM (inactive)
9 | O=S(=O)(O)c1cc(/N=N/c2cc(S(=O)(=O)O)c3cccnc3c2O)ccc1/C=C/c1ccc(/N=N/c2cc(S(=O)(=O)O)c3cccnc3c2O)cc1S(=O)(=O)O | > 100 µM (inactive) | > 100 µM (inactive) | > 100 µM (inactive) | > 100 µM (inactive) | > 100 µM (inactive) | > 100 µM (inactive) | > 100 µM (inactive) | > 94.8 µM (inactive) | 63.2 µM (inactive) | 20.4 µM (inactive) | > 100 µM (inactive) | > 100 µM (inactive) | > 100 µM (inactive) | > 100 µM (inactive) | 21.7 µM (inactive) | > 100 µM (inactive) | > 100 µM (inactive) | > 100 µM (inactive) | > 100 µM (inactive) | > 100 µM (inactive)
10 | COc1cc(C2c3cc4c(cc3[C@@H](OCCN(C)C)C3COC(=O)[C@H]23)OCO4)cc(OC)c1O (stereo partly drawn) | 0.139 µM (active) | 0.0655 µM (active) | 0.14 µM (active) | 2.85 µM (inactive) | 0.052 µM (active) | 1.65 µM (inactive) | 0.902 µM (active) | 0.145 µM (active) | 0.384 µM (active) | 0.0165 µM (active) | 0.0394 µM (active) | 0.0127 µM (active) | 0.111 µM (active) | 0.33 µM (active) | < 0.01 µM (active) | 1.68 µM (inactive) |  |  |  | 
11 | CCCCCCCCCc1cc(=O)c2ccc(O)cc2o1 | 39.8 µM (inactive) | 37.6 µM (inactive) | 4.66 µM (inactive) | 51.4 µM (inactive) | 46.8 µM (inactive) | > 100 µM (inactive) | > 100 µM (inactive) | 40.2 µM (inactive) | > 100 µM (inactive) | 23.6 µM (inactive) | 12.6 µM (inactive) | 57.8 µM (inactive) | 31.4 µM (inactive) | 44.8 µM (inactive) | 24.3 µM (inactive) | 65.3 µM (inactive) |  |  |  | 
12 | CCCCCCc1cc(C(=O)Nc2cccc(C(F)(F)F)c2)nc(N)n1 | > 100 µM (inactive) | > 100 µM (inactive) | > 100 µM (inactive) | > 100 µM (inactive) | > 100 µM (inactive) | > 100 µM (inactive) | > 100 µM (inactive) | > 100 µM (inactive) | > 100 µM (inactive) | > 100 µM (inactive) | > 100 µM (inactive) | > 100 µM (inactive) |  | > 100 µM (inactive) | > 100 µM (inactive) | > 100 µM (inactive) |  |  |  | 
13 | CCOC(=O)C(=O)Nc1ccc(Cl)c(C(F)(F)F)c1 | > 100 µM (inactive) | > 100 µM (inactive) | > 100 µM (inactive) | > 100 µM (inactive) | > 100 µM (inactive) | > 100 µM (inactive) | > 100 µM (inactive) | > 100 µM (inactive) | > 100 µM (inactive) | > 100 µM (inactive) | > 100 µM (inactive) |  | > 100 µM (inactive) | > 100 µM (inactive) | > 100 µM (inactive) | > 100 µM (inactive) |  |  |  | 
14 | CC(C)=CC(C(O)c1ccccc1)S(=O)(=O)c1nccn1C (stereo not drawn) | > 100 µM (inactive) | > 100 µM (inactive) |  | > 100 µM (inactive) | > 100 µM (inactive) | > 100 µM (inactive) | > 100 µM (inactive) | > 100 µM (inactive) | > 100 µM (inactive) | > 100 µM (inactive) | > 100 µM (inactive) | > 100 µM (inactive) | > 100 µM (inactive) | > 100 µM (inactive) | > 100 µM (inactive) | > 100 µM (inactive) |  |  |  | 
15 | COC(=O)C1=C(c2ccc3c(c2)OCO3)OC(c2ccc3c(c2)OCO3)C1 (stereo not drawn) | > 100 µM (inactive) | 78.2 µM (inactive) | > 100 µM (inactive) | 66.1 µM (inactive) | > 100 µM (inactive) | > 100 µM (inactive) | > 100 µM (inactive) | 28.3 µM (inactive) | > 100 µM (inactive) | 16.9 µM (inactive) | > 100 µM (inactive) | > 100 µM (inactive) |  | > 100 µM (inactive) | 74.5 µM (inactive) | 69.7 µM (inactive) |  |  |  | 
16 | COc1ccc(/C=c2\sc3n(c2=O)C(N)=C(C#N)C(c2ccc(OC)cc2)C=3c2nc3ccccc3[nH]2)cc1 (stereo not drawn) | > 100 µM (inactive) | 33.7 µM (inactive) | 21.4 µM (inactive) | 56.4 µM (inactive) | 33.4 µM (inactive) | 22.6 µM (inactive) |  | 18 µM (inactive) | 77.1 µM (inactive) | 29.1 µM (inactive) | 27 µM (inactive) | 18.6 µM (inactive) | 45.7 µM (inactive) | 42.1 µM (inactive) | 39.5 µM (inactive) | 28.9 µM (inactive) |  |  |  | 
